Measured values: patent publication US20230151065A1, “MULTI-DISULFIDE-BOND LONG-CHAIN PEPTIDE WITH NEURO[…], PHARMACEUTICAL COMPOSITION AND APPLICATION” (priority 2018, published 2023)
Where no end group is shown, it is not given here.

Assays:
[1] = system: primary cultured SD fetal rat cortical neurons after OGD damage; test: OGD damage of cortical neurons, observation under light microscope; type: cell-based; details: OGD 2 h, 24 h reoxygenation; ABPPk2 medium-dose (40 ng/ml) and high-dose (200 ng/ml) groups vs OGD damage group
Procedure: (§1) The suspension was filtered with a 400-mesh screen, centrifuged at 1000 rpm for 5 min, and blown to form the single cell suspension. DMEM high glucose complete medium (containing 10% fetal bovine serum) was inoculated in a culture dish or culture plate pre-coated with polylysine (PLL) to culture in 5% CO2 incubator with saturated humidity at 37° C. After the cells were cultured for 4 h to adhere to the wall, the cells were cultured with neuron culture medium (neurobasal+2% B27) for 3 d to observe the growth of neurons. The culture medium containing cytarabine (the final concentration of cytarabine was 2.5 μg/ml) was substituted with half quantity to culture for 3d to inhibit the growth of glial cells and miscellaneous cells to obtain purely cultured primary cortical nerve cells. The purity of the cortical neurons was identified by immunocytochemical staining as more than 90%.
After the cortical neurons were cultured to the 7th day, the original culture medium was sucked out, and the cells were rinsed twice with sugar-free DMEM basal medium, for 5 min each time. Each OGD damage group was added with DMEM sugar-free culture medium, placed in a Billups-Rothenberg anaerobic culture chamber, filled with 95% N2/5% CO2 to balance for 15 min, and sealed for 2 h to build an OGD model. […]

[2] = system: primary cultured hippocampal neurons damaged by NMDA; test: NMDA damage of primary cultured hippocampal neurons, MTT viability; type: cell-based, SD (Sprague-Dawley) rat; details: for hippocampal neuron activity after NMDA damage (MTT): MK801 10 μM
Text: (1) Establishment of NMDA damage model. Primary culture of hippocampal neurons: SD (Sprague-Dawley) female rats pregnant for 18-19 days were anesthetized with a compound anaesthetic agent; fetal rat brains were taken under aseptic conditions and placed in HBSS solution (8.4 g/L of NaCl, 0.224 g/L of KCl, 2.38 g/L of HEPES, 500,000 units of penicillin sodium and 500,000 units of kanamycin sulfate; the pH was adjusted to 7.1-7.2 with 1M NaOH; then the osmotic pressure was adjusted to about 290±10 m Osm with ultrapure water; and after filtration, the solution was stored at 4° C.); the meninges were removed under a stereoscopic dissecting microscope; the bilateral hippocampus was removed and digested in 0.125% pancreatic protease at 37° C. for 10 min; and complete media (90% DMEM medium+10% FBS) (FBS: fetal bovine serum) was used to terminate the digestion; the bilateral hippocampus was washed for 3 times with the complete media to make a single cell suspension; the cell density was adjusted to about 7-8×10^5/ml; and the bilateral hippocampus was inoculated to a 6-well/96-well cell culture plate/60 mm culture dish/slide coated with L-polylysine. After 24 hours, the media were changed to serum-free neurobasal media (GIBCO) which were then placed in a 5% CO2, 37° C. incubator for culture; and half of the solution was changed every three days.
(2) NMDA damage treatment of hippocampal neurons: (1) The original media were sucked out and the cells were washed with magnesium-free extracellular fluid for three times, each for 5 minutes. (2) 10 mM NMDA (N-methyl-D-aspartic acid) and 10 mM Gly (glycine) were prepared with magnesium-free extracellular fluid, and NMDA was prepared to different concentrations with the magnesium-free extracellular fluid, wherein the final concentration of Gly was 10 μM. […] After damage, the cells were washed for three times with DMEM medium, each for 5 minutes. (3) The original culture media were re-added to continue for culturing for 24 hours.
(3) Detection of viability of hippocampal neurons after NMDA damage: (1) The hippocampal neurons were inoculated into a 96-well culture plate at 8×10^5 cells/ml, 0.1 ml per well, and cultured in a 5% CO2 incubator for 7-8 days. (2) After NMDA damage treatment and continuous culture for 24 hours, the culture solution was sucked off. (3) 100 μl of DMEM culture medium containing MTT (3-(4,5-dimethylthiazole-2)-2,5-diphenyltetrazolium bromide, 0.5 mg/ml) was added to each well, and the culture plate was put into 37° C., 5% CO2 incubator for culturing for 4 h. (4) 100 μl of 20% SDS was added to each well (20 g of sodium lauryl sulfate was dissolved in 50 ml of ddH2O+50 ml of N,N dimethylformamide) at 37° C. for 20 h. (5) The solution was shaken on a horizontal shaker for 5 min. (6) The optical density (OD) was measured at 570 nm (reference wavelength of 490 nm) on a microplate reader.
(6) Effect of ABPPk2 on decrease of hippocampal neuron activity caused by NMDA. Effect of different concentrations of ABPPk2 on hippocampal neuron damage caused by NMDA (100 μM, 30 min). The experiment was divided into 9 experimental groups: a normal group, NMDA (100 μM, 30 min) group (as a control group), ABPPk2 (0.01 μg/ml) group, ABPPk2 (0.1 μg/ml) group, ABPPk2 (0.3 μg/ml) group, ABPPk2 (1 μg/ml) group, ABPPk2 (3 μg/ml) group, ABPPk2 (10 μg/ml) group and MK801 (dizocilpine, 10 μM) group (as a positive control group). Three administration ways were adopted for ABPPk2: (1) ABPPk2 was administered 12 hours before and during the NMDA damage. (2) ABPPk2 was administered during NMDA damage. (3) ABPPk2 was administered during 24 hours of culture after NMDA damage.

[3] = system: primary cultured SD fetal rat cortical neurons after OGD damage; test: OGD damage of cortical neurons, ROS content (reactive oxygen detection kit); type: cell-based; details: OGD 2 h, 24 h reoxygenation; ABPPk2 8, 40, 200 ng/ml; obvious dose-effect relationship
Procedure: as §1, with “90%. […]” for “90%.”
(6) Effect of ABPPk2 on ROS content of cortical neurons after OGD damage: cortical neurons were inoculated in a 6-well plate at 1×10^6 cells/ml; 2 ml of cell suspension was added to each well; and the cortical neurons were cultured to the 7th day. […] The effect of ABPPk2 on the ROS content of the cortical neurons after OGD damage was detected by a reactive oxygen detection kit.

Cys-Leu-Glu-Ser-Gly-Thr-Ser-Cys-Ile-Pro-Gly-Ala-Gln-His-Asn-Cys-Cys-Ser-Gly-Val-Cys-Val-Pro-Ile-Val-Thr-Ile-Phe-Tyr-Gly-Val-Cys-Tyr (CLESGTSCIPGAQHNCCSGVCVPIVTIFYGVCY; disulfide (positions not given here); not fully specified (bridges); also: three disulfide bonds, pairing not given here) [ABPPk2, 33 amino acid polypeptide isolated from the extract of Achyranthes bidentata Blume, three pairs of disulfide bonds]
dead cells under light microscope [1]: the number of dead cells is significantly reduced
hippocampal neuron activity after NMDA damage (MTT) ([2]; given 12 h before and during NMDA (100 μM, 0.5 h), ABPPk2 0.1, 0.3 and 1 μg/ml groups): can effectively reduce the decrease of hippocampal neuron activity caused by NMDA damage
hippocampal neuron activity after NMDA damage (MTT) ([2]; given during 24 h culture after NMDA damage (100 μM, 0.5 h), ABPPk2 0.1-10 μg/ml): can effectively reduce the decrease of hippocampal neuron activity caused by NMDA damage
hippocampal neuron activity after NMDA damage (MTT) ([2]; given during NMDA damage (100 μM, 0.5 h), ABPPk2 1 and 10 μg/ml groups): can effectively reduce the decrease of hippocampal neuron activity caused by NMDA damage
protective effect on NMDA damage of primary hippocampal neurons ([2]; overall statement, experimental solution of embodiment 6, concentration and administration way not stated): has a protective effect on the damage of primary cultured hippocampal neurons induced by NMDA
ROS content [3]: can reduce the ROS content
